# Assay results as given in US20260294845A1, “Uses of Adrenalone to Manage Cardiotoxicity or Cardiovascular Disorders” (Emory University, priority 2023, published 2026).
# “Also recorded” adds a separate entry of the source.
# Tests used:
# hiPSC-CMs [1] = experiment: Mitochondrial oxidative stress caused by bortezomib (PS-341); format: cell-based, human; details: with bortezomib
# Description: (§1) Cardiomyocytes derived from human pluripotent stem cells (hiPSC-CMs) were provide a new platform for the studies of cancer drug-induced side effects and therapies. Using these cells, lead molecules were identified indicating protective properties on cardiomyocytes from the toxic effect of chemotherapy agents and ethanol (EtOH). […] Oxidative stress is a common molecular mechanism for cardiotoxicity induced by chemotherapy including proteosome inhibitors.
# hiPSC-CMs [2] = details: Liu et al., 2021; cited from earlier work
# hiPSC-CMs [3] = experiment: Chronic ethanol exposure of hiPSC-CMs: cellular properties, functions and global proteomic profiling; format: cell-based, human
# Procedure: Cardiomyocytes derived from human pluripotent stem cells (hiPSC-CMs) were treated with clinically relevant doses of ethanol for various durations up to 5 weeks. The treated cells were characterized for their cellular properties and functions, and global proteomic profiling was conducted.
# hiPSC-CMs [4] = experiment: Cell viability of hiPSC-CMs treated with doxorubicin with or without 4H10 (CellTiter-Blue); format: cell-based, human
# Description: Doxorubicin is a widely used chemotherapy drug for various cancers, including breast cancer, leukemia, and lymphoma. However, one significant side effect associated with doxorubicin use is cardiotoxicity. It is contemplated that 4H10 may target common mechanisms of cardiotoxicity and have a broad impact of cardioprotection since it protects hiPSC-CMs from toxicity induced by both ethanol and carfilzomib.
# patients = details: cancer patients on therapy; cited from earlier work
# proteasome [5] = experiment: Proteasome activity in hiPSC-CMs after carfilzomib with or without 4H10; format: cell-based, human; details: 4H10 co-treatment with carfilzomib, 24 h, IMR-90 hiPSC-CMs
# Procedure: (§2) (top) Proteasome activity of IMR-90 hiPSC-CMs was measured after the cells were treated with CFZ with or without 4H10 for 24 hours. (bottom, right, left) Proteasome activity and cell viability of RPMI8226 cells (cancer cells) were measured after the cells were treated with CFZ with or without 4H10 for 24 hours.
# The proteasome, responsible for the regulated degradation of proteins, is a key cellular component targeted by carfilzomib as part of its mechanism of action in cancer therapy. Therefore, in addition to validation of cardioprotective effects of 4H10 on cell viability and mitochondrial function, it is crucial to examine if 4H10 compromises the proteasome inhibition efficacy of carfilzomib.
# hiPSC-CMs [6] = experiment: Cell viability assay and cell counting (high-content imaging) of EtOH-challenged hiPSC-CMs; format: cell-based, human
# Description: (§3) EtOH-induced cardiotoxicity shares common disease phenotypes and possibly similar underlying mechanisms with drug-induced cardiotoxicity.
# hiPSC-CMs [7] = experiment: MitoTracker Red staining (mitochondrial content and activity) of carfilzomib-treated hiPSC-CMs, high-content imaging; format: cell-based, human; details: 24 h
# Procedure: MitoTracker™ Red staining was performed in IMR-90 hiPSC-CMs treated with CFZ with or without 4H10 for 24 hours.
# (§4) A human induced pluripotent cell line (hiPSC line IMR90™, WiCell Research Institute) was fed daily on Matrigel™-coated plates with a defined medium for hiPSC culture, mTeSR1 medium. For CM differentiation, hiPSCs were induced using a growth factor-driven differentiation protocol as reported in Jha et al. Efficient differentiation of cardiomyocytes from human pluripotent stem cells with growth factors. Methods Mol Biol, 2015, 1299, 115-131. On the day of induction (day 0), medium was replaced with RPMI 1640 medium supplemented with 2% B27 minus insulin (a cell culture supplement) containing 100 ng/ml activin A. After induction for 24 h, the medium was replaced with fresh RPMI supplemented with 2% B27 minus insulin containing 10 ng/ml BMP4. From day 4 of differentiation, the medium was replaced with RPMI supplemented with 2% B27. On day 5, the cells were dissociated and reseeded into AggreWell400™ plates to acquire cardiac spheres. After 24 h, the cardiac spheres formed were collected and transferred to low-adhesion dishes for suspension culture. The medium was changed every other day. Cardiac spheres typically started beating spontaneously by day 7 to 9.
# Mitochondria play a crucial role in energy production, cellular metabolism, and the regulation of cell death. Experiments indicate carfilzomib induces mitochondrial dysfunction in hiPSC-CMs. To assess the potential mitigating effects of 4H10 on carfilzomib-induced mitochondrial dysfunction, hiPSC-CMs were treated with carfilzomib alone or co-treated with 4H10 at various concentrations. Mitochondria were then visualized using MitoTracker™ Red dyes, which can accumulate in active mitochondria and allow for the measurement of mitochondrial content and activity in live cells.
# RPMI8226 cells = experiment: Cell viability of RPMI8226 cells after carfilzomib with or without 4H10; format: cell-based; details: 4H10 co-treatment with carfilzomib, 24 h
# Procedure: as §2
# (§5) Experiments were designed to determine the effects of carfilzomib and 4H10 on proteasome activity and cell viability of RPMI8226 cell line, which has been investigated for the efficacy tests of carfilzomib in […].
# hiPSC-CMs [8] = experiment: Intracellular oxidative stress (ROS) of carfilzomib-treated hiPSC-CMs, DCFDA/H2DCFDA assay; format: cell-based, human; details: 24 h
# Procedure: The quantification of oxidative stress was performed using DCFDA staining of SCVI hiPSC-CMs treated with Cfz with or without 4H10 for 24 hours.
# The induction of oxidative stress is a crucial mechanism through which proteasome inhibitors induce apoptosis. To investigate if 4H10 could alleviate carfilzomib-induced increase of oxidative stress in cardiomyocytes, hiPSC-CMs were exposed to carfilzomib at 5 μM alone or together with 4H10 at various concentrations for 24 h. The production of cellular reactive oxygen species (ROS) was then measured using DCFDA/H2DCFDA assay kit.
# proteasome [9] = experiment: Proteasome activity in RPMI8226 cells after carfilzomib with or without 4H10; format: cell-based; details: 4H10 with carfilzomib, 24 h
# Procedure: as §2, §5
# hiPSC-CMs [10] = experiment: Cardiac troponin T expression and mitochondrial content in EtOH-treated hiPSC-CMs; format: cell-based, human
# Description: as §3
# SCVI-273 hiPSC-CMs = experiment: Cell viability of EtOH-treated hiPSC-CMs derived from SCVI-273 hiPSCs; format: cell-based, human; details: another cell line SCVI-273
# Description: as §3
# hiPSC-CMs [11] = experiment: Cell viability of hiPSC-CMs treated with carfilzomib with or without 4H10 (CellTiter-Blue); format: cell-based, human; details: for mitigation of carfilzomib-induced cytotoxicity: co-treatment of hiPSC-CMs with carfilzomib
# Procedure: Cell viability was analyzed after IMR-90 hiPSC-CMs were treated with carfilzomib (CFZ) with or without 4H10 for 24 hours. (n=5 cultures).
# as §4, §1
# Consistently, treatment of hiPSC-CMs induced cell death and cytotoxicity. To examine if 4H10 could protect cardiomyocytes from carfilzomib-induced cytotoxicity, hiPSC-CMs were treated with carfilzomib at 5 μM alone or together with 4H10 at various concentrations for 24 h and then examined cell viability using the CellTiter-Blue Cell Viability Assay. Cells treated with DMSO (vehicle) were used as a control.
# hiPSC-CMs [12] = experiment: Oxidative stress in EtOH-treated hiPSC-CMs; format: cell-based, human
# Description: as §3
# α1-AR [13] = experiment: Staining of hiPSC-CMs with BODIPY-FL-prazosin for α1-AR expression; format: cell-based, human; details: fluorescent staining, α1-AR expression and localization
# Description: The expression of α1-AR was detected in hiPSC-CMs based on the BODIPY FL prazosin signals.
# α1-AR [14] = details: literature knowledge; cited from earlier work
# hiPSC-CMs [15] = experiment: Effects of chemotherapeutic agents on function of hiPSC-CMs; format: cell-based, human; details: melphalan treatment
# [16] = clinically relevant doses of ethanol, up to 5 weeks
molecule,measurement,setting,value
"CNCC(=O)c1ccc(O)c(O)c1 [Adrenalone, 1-(3,4-dihydroxyphenyl)-2-(methylamino) ethan-1-one]",mitochondrial oxidative stress caused by bortezomib (PS-341),hiPSC-CMs [1],reduced mitochondrial oxidative stress
CCO [ethanol],changes in hiPSC-CMs on chronic ethanol exposure,hiPSC-CMs [2],induces deleterious changes in cardiomyocytes
same,Ca^2+ handling,hiPSC-CMs [3]; [16],deranged Ca^2+ handling
same,action potential,hiPSC-CMs [3]; [16],abnormal action potential
same,cell death,hiPSC-CMs [3]; [16],Increased cell death
same,contractility,hiPSC-CMs [3]; [16],altered contractility
same,oxidative stress,hiPSC-CMs [3]; [16],"Increased cell death, oxidative stress"
same,structure development,hiPSC-CMs [3]; [16],suppressed structure development
same,global proteomic profiling: dysregulated proteins,"hiPSC-CMs [3]; ethanol, up to 5 weeks","Many dysregulated proteins identified by global proteomic profiling were involved in apoptosis, heart contraction, and extracellular collagen matrix"
same,signaling pathways affected,hiPSC-CMs [3]; long-term ethanol exposure,several signaling pathways including the Wnt and TGFβ signaling pathways were affected
COc1cccc2c1C(=O)c1c(O)c3c(c(O)c1C2=O)C[C@@](O)(C(=O)CO)C[C@@H]3O[C@H]1C[C@H](N)[C@H](O)[C@H](C)O1 [doxorubicin],cell viability after doxorubicin,"hiPSC-CMs [4]; doxorubicin 1-10 μM alone, 24 h, compared with untreated cells",significant decrease in cell viability
same,cardiac adverse events in patients,patients,cardiotoxicity
CNCC(=O)c1ccc(O)c(O)c1 [4H10],effect on proteasome inhibition activity of carfilzomib,proteasome [5],does not interfere with the proteasome inhibition activity of carfilzomib; also recorded: did not interfere with the proteasome inhibition activity of carfilzomib
same,protection from alcohol-induced cytotoxicity,hiPSC-CMs [6]; hiPSC-CMs,can protect hiPSC-CMs from alcohol- and carfilzomib-induced cytotoxicity
same,cell survival following EtOH challenge,"hiPSC-CMs [6]; hiPSC-CMs challenged with EtOH, cell viability assay and cell counting",increased cell survival dose-dependently
same,cell number after EtOH treatment,hiPSC-CMs [6]; high-content imaging,attenuated the reduced cell number induced by EtOH treatment
same,cell viability after co-treatment with doxorubicin and 4H10,"hiPSC-CMs [4]; 4H10 25 μM + doxorubicin 1, 2, 5 or 10 μM, 24 h, compared with doxorubicin",increased cell viability
same,mitigation of doxorubicin-induced cytotoxicity,hiPSC-CMs [4]; 4H10 co-treatment with doxorubicin,protects hiPSC-CMs from doxorubicin-induced cytotoxicity; also recorded: mitigated doxorubicin-induced cytotoxicity
same,MitoTracker Red fluorescence intensity on co-treatment,"hiPSC-CMs [7]; 4H10 at 10 μM or higher + carfilzomib, dose-dependent",increase in fluorescence intensity
same,mitigation of carfilzomib-induced mitochondrial defects,hiPSC-CMs [7]; co-treatment with carfilzomib,mitigates carfilzomib-induced mitochondrial defects; also recorded: mitigated carfilzomib-induced mitochondrial defects in hiPSC-CMs in a dose-dependent manner
same,change of carfilzomib-reduced RPMI8226 viability by 4H10 co-treatment,RPMI8226 cells,does not interfere with the proteasome inhibition activity of carfilzomib and the ability of carfilzomib to kill cancer cells; also recorded: not significantly changed
same,DCFDA fluorescence intensity on co-treatment,"hiPSC-CMs [8]; 4H10 at 5 μM or higher + carfilzomib 5 μM, dose-dependent",reduction of DCFDA fluorescence intensity
same,mitigation of carfilzomib-induced oxidative stress,"hiPSC-CMs [8]; co-treatment with carfilzomib, SCVI hiPSC-CMs",mitigates carfilzomib-induced intracellular oxidative stress; also recorded: mitigated carfilzomib-induced oxidative stress in hiPSC-CMs in a dose-dependent manner
same,change of proteasome activity in RPMI8226 cells by 4H10,proteasome [9],did not elicit any changes
same,defects in expression of cardiac troponin T,hiPSC-CMs [10],reduced
same,defects in mitochondrial content,hiPSC-CMs [10],reduced
same,"cell viability, EtOH-treated SCVI-273 hiPSC-CMs",SCVI-273 hiPSC-CMs,increased cell viability
same,maximal cytoprotective effect against carfilzomib,"hiPSC-CMs [11]; 4H10 at 25 μM and 50 μM + carfilzomib 5 μM, 24 h",maximal cytoprotective effect for the cells to reach viability levels similar to those from DMSO-treated cells
same,cell viability after co-treatment with carfilzomib and 4H10,"hiPSC-CMs [11]; carfilzomib 5 μM + 4H10 at 5 μM or higher, 24 h, compared (so in the source) with DMSO-treated cells",significantly increased cell viability
same,mitigation of carfilzomib-induced cytotoxicity,hiPSC-CMs [11],protection of hiPSC-CMs from carfilzomib-induced cardiotoxicity; also recorded: reduced cytotoxicity was observed; also recorded: mitigated carfilzomib-induced cytotoxicity in a dose-dependent manner
same,mitigation of carfilzomib-induced cytotoxicity,hiPSC-CMs [11]; listed as adrenalone HCl,protected hiPSC-CMs from cardiotoxicity induced by carfilzomib
same,oxidative stress in EtOH-treated hiPSC-CMs,hiPSC-CMs [12],reduced oxidative stress
BODIPY-FL-prazosin,BODIPY FL prazosin signals in hiPSC-CMs,α1-AR [13],co-localized with nuclei
same,α1-AR affinity / antagonism,α1-AR [14],high-affinity antagonist
melphalan,cardiac adverse events in patients,patients,clinically observed arrhythmias
same,cardiotoxicity in hiPSC-CMs: cardiac function,hiPSC-CMs [15],abnormal cardiac function
same,cardiotoxicity in hiPSC-CMs: oxidative stress,hiPSC-CMs [15],"induces cardiotoxicity, including oxidative stress"
